Test results published in patent US4758580A, “Inhibiting growth of tumors with certain substituted phenoxy dimethyl alkanoic acids, esters or salts” (Yamanouchi Pharmaceutical Co., Ltd., priority 1985, dated 1988).
Values after ≈ are worked out from the molar mass of the structure shown.

Legend:
[1] = test system: Meth A (methylcholanthrene-induced cancer); assay: In vitro cytotoxicity against mouse tumor cells, Meth A; type: cell-based; conditions: Meth-A, 72 h
Procedure: (§1) A suspension of cells in a culture medium was transferred into wells in a microplate in an amount of 1×10^5 cells/wall. Test sample diluted with a culture medium was added to the suspension in each well, and the mixture was incubated on the medium at 37° C. for 3 days in atmosphere of air containing 5% carbon dioxide. Thereafter, the incubated cells were recovered from the microplate and the number of live cells was counted by the dye exclusion test using a 0.5% solution of trypan blue and by using a hemocytomer.

[2] = test system: Ehrlich ascites tumor; assay: Anti-tumor effect against Ehrlich ascites tumor; type: in vivo, ddY/SLC mice; conditions: 25 mg/kg i.p., 1-9 Days
Procedure: (§2) Ehlrich tumor cells, 1×10^6, on Day 7 after intraperitoneal transplantation to ddY/SLC mice were intraperitoneally transplanted to ddY/SLC mice (5 week age, male) of 10 mice each being grouped in one. The active component was intraperitoneally administered in a definite dose 24 hours after the transplantation according to the schedule shown in Table 4. An effect of tumor growth inhibition was evaluated by a percentage of the median survival day of the administered group versus that of the control group, according to the following equation.
(§3) T: median survival day of the administered group
(§4) C: median survival day of the control group

[3] = test system: MH 134 (liver cancer); assay: In vitro cytotoxicity against mouse tumor cells, MH 134; type: cell-based; conditions: MH 134, 72 h
Procedure: as §1

[4] = test system: L-1210; assay: In vitro cytotoxicity against mouse tumor cells, L-1210; type: cell-based; conditions: L1210, 72 h
Procedure: as §1

[5] = test system: Ehrlich solid tumor; assay: Anti-tumor test against Ehrlich solid tumor; type: in vivo, ddY/SLC mice
Procedure: Ehrlich tumor cells, 2×10^6, on Day 7 after intraperitoneal transplantation to ddY/SLC mice were subcutaneously transplanted in the left abdomen of ddY/SLC mice (5 week age, male), 10 each grouped into one. The active component was intraperitoneally or orally administered in a definite dose 24 hours after the transplantation, according to the schedule shown in Table 1 (A), (B) or (C). An effect of inhibiting growth of tumor was compared, by measuring the long diameter and short diameter of the tumor on 14, 20 and 21 Days after the transplantation, calculating the tumor size (mm^2) and determining a tumor growth inhibition rate of the group administered with the active component to the control group according to the following equation:
Growth inhibition rate (%)=(C-T)/C×100
T: means tumor size (mm^2) in the active component-administered group
C: mean tumor size (mm^2) in the control group

[6] = test system: KB (nasal cavity & pharynx cancer); assay: In vitro cytotoxicity against human tumor cells, KB; type: cell-based; conditions: 72 h
Procedure: (§5) A suspension of cells in a culture medium was transferred into wells in a microplate in an amount of 5×10^4 cells/well. Test sample diluted with a culture medium was added to the suspension in each well, and the mixture was incubated at 37° C. for 3 days in an atmosphere of air containing 5% carbon dioxide. After skimming, sticking cells were dyed which crystalviolet for 10 minutes. After washing with water, 1% sodium lauryl sulfate solution was added to each well, and the absrobancy (optical density) at […] was measured. "% inhibition" was calculated from the following equation. [formula]

[7] = test system: ACHN (kidney cancer); assay: In vitro cytotoxicity against human tumor cells, ACHN; type: cell-based; conditions: 72 h
Procedure: as §5

[8] = test system: Bowes (melanoma); assay: In vitro cytotoxicity against human tumor cells, Bowes; type: cell-based; conditions: 72 h
Procedure: as §5

[9] = test system: MM-46 ascites tumor; assay: Anti-tumor test against mice mammary cancer MM-46 ascites tumor; type: in vivo, C3 H/He/CRJ mice
Procedure: as §2, with “MM-46” for “Ehlrich”, “C3 H/He/CRJ” for “ddY/SLC mice were intraperitoneally transplanted to ddY/SLC”, “5.” for “4.”, “time” for “day”
as §3, §4

[10] = test system: Ehrlich (carcinoma); assay: In vitro cytotoxicity against mouse tumor cells, Ehrlich; type: cell-based; conditions: Ehrlich, 72 h
Procedure: as §1

[11] = test system: liver cancer (MH-134) cells; assay: Inhibition of spontaneous metastasis (to the lymph node) of liver cancer (MH-134) cells in mice; type: in vivo, C3 H/He/SLC mice; conditions: 20th day
Procedure: (a) Inhibition of spontaneous metastasis (to the lymph node) of liver cancer (MH-134) cells in mice
MH-134 tumor cells, 1×10^6, on Day 7 after intraperitoneal transplantation to C3 H/He/SLC mice were transplanted to the right leg. On the 11th day after the transplantation, the right leg portion wherein the cancer cells were transplanted were cut off. The test compounds were administered orally in a definite dose 24 hours after the transplantation. In order to confirm metastasis-inhibiting effect, on 20th day of the transplantation the mice were anatomised to observe the metastasis to the lymph node in the inguinal portion. [formula] Further, the weight of the lymph node metastasis tumor in the inguinal portion of anatomised mice was measured. [formula]

[12] = Day 14, 2.5 mg/kg i.p., Days 1, 2, 3, 5 & 6
[13] = Day 14, 12.5 mg/kg i.p., Days 1, 2, 3, 4, 6, 7, 8, 9
[14] = Day 14, 25 mg/kg i.p., Days 1, 2, 3, 4 & 7
[15] = Day 14, 25 mg/kg i.p., Days 1, 2, 3, 4, 6, 7, 8, 9
[16] = Day 21, 2.5 mg/kg i.p., Days 1, 2, 3, 5 & 6
[17] = Day 21, 12.5 mg/kg i.p., Days 1, 2, 3, 4, 6, 7, 8, 9
[18] = Day 21, 25 mg/kg i.p., Days 1, 2, 3, 4 & 7
[19] = Day 21, 25 mg/kg i.p., Days 1, 2, 3, 4, 6, 7, 8, 9
[20] = 6.25 mg/kg i.p., 1, 2, 3, 4 and 6 Days
[21] = 12.5 mg/kg i.p., 1, 2, 3, 4 and 6 Days
[22] = 25 mg/kg i.p., 1, 2, 3, 4 and 6 Days
[23] = 50 mg/kg oral, 1, 3, 5, 7, 9, 11, 13 and 15 days
[24] = 100 mg/kg oral, 1, 3, 5, 7, 9, 11, 13 and 15 days

O=c1[nH]cc(F)c(=O)[nH]1 [5-Fluorouracil, reference compound]
IC50 [1]: 0.1 µg/mL (≈ 0.769 µM) | Median Survival Day [2]: 24.5 days | No. of 40-day Survivors [2]: 0/8 | T/C (median survival) [2]: 163.3% | IC50 [3]: 0.009 µg/mL (≈ 0.0692 µM) | IC50 [4]: 0.06 µg/mL (≈ 0.461 µM) | Growth Inhibition Rate [5, 12]: 42.9% | Size of Tumor [5, 12]: 133.7 ± 61.1 mm^2 | Growth Inhibition Rate [5, 13]: 44.1% | Size of Tumor [5, 13]: 142.6 ± 36.9 mm^2 | Growth Inhibition Rate [5, 14]: 40.0% | Size of Tumor [5, 14]: 86.7 ± 35.1 mm^2 | Growth Inhibition Rate [5, 15]: 54.4% | Size of Tumor [5, 15]: 116.3 ± 44.0 mm^2 | Growth Inhibition Rate [5, 16]: 42.4% | Size of Tumor [5, 16]: 306.8 ± 166.8 mm^2 | Growth Inhibition Rate [5, 17]: 34.2% | Size of Tumor [5, 17]: 280.6 ± 68.9 mm^2 | Growth Inhibition Rate [5, 18]: 57.5% | Size of Tumor [5, 18]: 217.8 ± 126.2 mm^2 | Growth Inhibition Rate [5, 19]: 40.8% | Size of Tumor [5, 19]: 252.3 ± 100.3 mm^2 | IC50 [6]: 1.75 µg/mL (≈ 13.5 µM) | IC50 [7]: 0.1 µg/mL (≈ 0.769 µM) | IC50 [8]: 0.61 µg/mL (≈ 4.69 µM) | Median Survival Day [9, 20]: 16.0 days | Survivors (90 days) [9, 20]: 0/10 | T/C (median survival) [9, 20]: 213.3% | Median Survival Day [9, 21]: 17.0 days | Survivors (90 days) [9, 21]: 0/10 | T/C (median survival) [9, 21]: 226.7% | Median Survival Day [9, 22]: 20.0 days | Survivors (90 days) [9, 22]: 0/10 | T/C (median survival) [9, 22]: 266.7% | IC50 [10]: 0.05 µg/mL (≈ 0.384 µM) | Growth inhibition of the metastasis tumor [11, 23]: 48.7% | Metastasis-inhibition rate [11, 23]: 17.7% | Growth inhibition of the metastasis tumor [11, 24]: 74.2% | Metastasis-inhibition rate [11, 24]: 41.2%
